Test results: the NIST ThermoML archive (doi:10.1021/acs.jced.8b00692)
Numbers after ± are expanded uncertainties.

Key:
[1] = xn = mol fraction of the nth substance listed; details: 102 kPa, Liquid, x2 = 0; for viscosity: Concentric cylinders viscometry; for mass density: Vibrating tube method; for speed of sound: Frequency=3 MHz, Single path-length method
[2] = 102 kPa, Liquid; for viscosity: Concentric cylinders viscometry; for speed of sound: Frequency=3 MHz, Single path-length method; for mass density: Vibrating tube method

Compound: CCCCCCCCCCCCCCCC [hexadecane] + CCCCCCCCCCCCC1CCCCC1
- viscosity ([1]; 293.15 K): 3.47 ± 0.02 mPa·s
- mass density ([1]; 293.15 K): 773.37 ± 0.81 kg/m3
- viscosity ([1]; 303.15 K): 2.76 ± 0.02 mPa·s
- mass density ([1]; 303.15 K): 766.43 ± 0.81 kg/m3
- viscosity ([1]; 313.15 K): 2.24 ± 0.02 mPa·s
- mass density ([1]; 313.15 K): 759.51 ± 0.81 kg/m3
- viscosity ([1]; 323.15 K): 1.86 ± 0.01 mPa·s
- mass density ([1]; 323.15 K): 752.61 ± 0.81 kg/m3
- viscosity ([1]; 333.15 K): 1.56 ± 0.01 mPa·s
- mass density ([1]; 333.15 K): 745.69 ± 0.81 kg/m3
- viscosity ([1]; 343.15 K): 1.35 ± 0.01 mPa·s
- mass density ([1]; 343.15 K): 738.8 ± 0.8 kg/m3
- viscosity ([1]; 353.15 K): 1.15 ± 0.01 mPa·s
- mass density ([1]; 353.15 K): 731.9 ± 0.8 kg/m3
- viscosity ([1]; 363.15 K): 1.02 ± 0.01 mPa·s
- mass density ([1]; 363.15 K): 724.9 ± 0.8 kg/m3
- viscosity ([1]; 373.15 K): 0.885 ± 0.012 mPa·s
- mass density ([1]; 373.15 K): 717.9 ± 0.8 kg/m3

Compound: CCCCCCCCCCCCCCCC [hexadecane] + CCCCCCCCCCC1CCCCC1
- viscosity ([1]; 293.15 K): 3.47 ± 0.02 mPa·s
- mass density ([1]; 293.15 K): 773.37 ± 0.81 kg/m3
- viscosity ([1]; 303.15 K): 2.76 ± 0.02 mPa·s
- mass density ([1]; 303.15 K): 766.43 ± 0.81 kg/m3
- viscosity ([1]; 313.15 K): 2.24 ± 0.02 mPa·s
- mass density ([1]; 313.15 K): 759.51 ± 0.81 kg/m3
- viscosity ([1]; 323.15 K): 1.86 ± 0.01 mPa·s
- mass density ([1]; 323.15 K): 752.61 ± 0.81 kg/m3
- viscosity ([1]; 333.15 K): 1.56 ± 0.01 mPa·s
- mass density ([1]; 333.15 K): 745.69 ± 0.81 kg/m3
- viscosity ([1]; 343.15 K): 1.35 ± 0.01 mPa·s
- mass density ([1]; 343.15 K): 738.8 ± 0.8 kg/m3
- viscosity ([1]; 353.15 K): 1.15 ± 0.01 mPa·s
- mass density ([1]; 353.15 K): 731.9 ± 0.8 kg/m3
- viscosity ([1]; 363.15 K): 1.02 ± 0.01 mPa·s
- mass density ([1]; 363.15 K): 724.9 ± 0.8 kg/m3
- viscosity ([1]; 373.15 K): 0.885 ± 0.012 mPa·s
- mass density ([1]; 373.15 K): 717.9 ± 0.8 kg/m3

Compound: CCCCCCCC1CCCCC1 [heptylcyclohexane]
- viscosity ([2]; 293.15 K): 2.8 ± 0.02 mPa·s
- speed of sound ([2]; 293.15 K): 1374.4 ± 0.8 m/s
- mass density ([2]; 293.15 K): 810.99 ± 0.81 kg/m3
- viscosity ([2]; 303.15 K): 2.26 ± 0.02 mPa·s
- speed of sound ([2]; 303.15 K): 1336.1 ± 0.8 m/s
- mass density ([2]; 303.15 K): 803.96 ± 0.81 kg/m3
- viscosity ([2]; 313.15 K): 1.86 ± 0.02 mPa·s
- speed of sound ([2]; 313.15 K): 1298.7 ± 0.8 m/s
- mass density ([2]; 313.15 K): 796.93 ± 0.81 kg/m3
- viscosity ([2]; 323.15 K): 1.56 ± 0.01 mPa·s
- speed of sound ([2]; 323.15 K): 1262.1 ± 0.8 m/s
- mass density ([2]; 323.15 K): 789.89 ± 0.81 kg/m3
- viscosity ([2]; 333.15 K): 1.33 ± 0.01 mPa·s
- speed of sound ([2]; 333.15 K): 1226.5 ± 0.8 m/s
- mass density ([2]; 333.15 K): 782.83 ± 0.81 kg/m3
- viscosity ([2]; 343.15 K): 1.15 ± 0.01 mPa·s
- mass density ([2]; 343.15 K): 775.8 ± 0.8 kg/m3
- viscosity ([2]; 353.15 K): 0.993 ± 0.012 mPa·s
- mass density ([2]; 353.15 K): 768.7 ± 0.8 kg/m3
- viscosity ([2]; 363.15 K): 0.892 ± 0.012 mPa·s
- mass density ([2]; 363.15 K): 761.6 ± 0.8 kg/m3
- viscosity ([2]; 373.15 K): 0.776 ± 0.012 mPa·s
- mass density ([2]; 373.15 K): 754.4 ± 0.8 kg/m3

Compound: CCCCCCCCCCCCCCCC [hexadecane] + CCCCCCCCCC1CCCCC1
- viscosity ([1]; 293.15 K): 3.47 ± 0.02 mPa·s
- mass density ([1]; 293.15 K): 773.37 ± 0.81 kg/m3
- viscosity ([1]; 303.15 K): 2.76 ± 0.02 mPa·s
- mass density ([1]; 303.15 K): 766.43 ± 0.81 kg/m3
- viscosity ([1]; 313.15 K): 2.24 ± 0.02 mPa·s
- mass density ([1]; 313.15 K): 759.51 ± 0.81 kg/m3
- viscosity ([1]; 323.15 K): 1.86 ± 0.01 mPa·s
- mass density ([1]; 323.15 K): 752.61 ± 0.81 kg/m3
- viscosity ([1]; 333.15 K): 1.56 ± 0.01 mPa·s
- mass density ([1]; 333.15 K): 745.69 ± 0.81 kg/m3
- viscosity ([1]; 343.15 K): 1.35 ± 0.01 mPa·s
- mass density ([1]; 343.15 K): 738.8 ± 0.8 kg/m3
- viscosity ([1]; 353.15 K): 1.15 ± 0.01 mPa·s
- mass density ([1]; 353.15 K): 731.9 ± 0.8 kg/m3
- viscosity ([1]; 363.15 K): 1.02 ± 0.01 mPa·s
- mass density ([1]; 363.15 K): 724.9 ± 0.8 kg/m3
- viscosity ([1]; 373.15 K): 0.885 ± 0.012 mPa·s
- mass density ([1]; 373.15 K): 717.9 ± 0.8 kg/m3

Compound: CCCCCCCCC1CCCCC1 [octylcyclohexane]
- viscosity ([2]; 293.15 K): 3.52 ± 0.02 mPa·s
- speed of sound ([2]; 293.15 K): 1387 ± 0.9 m/s
- mass density ([2]; 293.15 K): 814.14 ± 0.81 kg/m3
- viscosity ([2]; 303.15 K): 2.79 ± 0.02 mPa·s
- speed of sound ([2]; 303.15 K): 1349.1 ± 0.9 m/s
- mass density ([2]; 303.15 K): 807.22 ± 0.81 kg/m3
- viscosity ([2]; 313.15 K): 2.27 ± 0.02 mPa·s
- speed of sound ([2]; 313.15 K): 1312.1 ± 0.9 m/s
- mass density ([2]; 313.15 K): 800.29 ± 0.82 kg/m3
- viscosity ([2]; 323.15 K): 1.88 ± 0.02 mPa·s
- speed of sound ([2]; 323.15 K): 1275.9 ± 0.9 m/s
- mass density ([2]; 323.15 K): 793.36 ± 0.82 kg/m3
- viscosity ([2]; 333.15 K): 1.58 ± 0.02 mPa·s
- speed of sound ([2]; 333.15 K): 1240.5 ± 0.9 m/s
- mass density ([2]; 333.15 K): 786.42 ± 0.82 kg/m3
- viscosity ([2]; 343.15 K): 1.36 ± 0.01 mPa·s
- mass density ([2]; 343.15 K): 779.5 ± 0.8 kg/m3
- viscosity ([2]; 353.15 K): 1.16 ± 0.01 mPa·s
- mass density ([2]; 353.15 K): 772.5 ± 0.8 kg/m3
- viscosity ([2]; 363.15 K): 1.04 ± 0.01 mPa·s
- mass density ([2]; 363.15 K): 765.5 ± 0.8 kg/m3
- viscosity ([2]; 373.15 K): 0.899 ± 0.012 mPa·s
- mass density ([2]; 373.15 K): 758.5 ± 0.8 kg/m3

Compound: CCCCCCCCCCCCC1CCCCC1 [dodecylcyclohexane]
- viscosity ([2]; 293.15 K): 7.76 ± 0.04 mPa·s
- speed of sound ([2]; 293.15 K): 1423.3 ± 0.9 m/s
- mass density ([2]; 293.15 K): 822.31 ± 0.81 kg/m3
- viscosity ([2]; 303.15 K): 5.81 ± 0.03 mPa·s
- speed of sound ([2]; 303.15 K): 1386.3 ± 0.9 m/s
- mass density ([2]; 303.15 K): 815.65 ± 0.81 kg/m3
- viscosity ([2]; 313.15 K): 4.48 ± 0.02 mPa·s
- speed of sound ([2]; 313.15 K): 1350.4 ± 0.9 m/s
- mass density ([2]; 313.15 K): 809.01 ± 0.81 kg/m3
- viscosity ([2]; 323.15 K): 3.55 ± 0.02 mPa·s
- speed of sound ([2]; 323.15 K): 1315.2 ± 0.9 m/s
- mass density ([2]; 323.15 K): 802.37 ± 0.81 kg/m3
- viscosity ([2]; 333.15 K): 2.88 ± 0.02 mPa·s
- speed of sound ([2]; 333.15 K): 1281.1 ± 0.9 m/s
- mass density ([2]; 333.15 K): 795.74 ± 0.81 kg/m3
- viscosity ([2]; 343.15 K): 2.39 ± 0.02 mPa·s
- mass density ([2]; 343.15 K): 789.1 ± 0.8 kg/m3
- viscosity ([2]; 353.15 K): 2.01 ± 0.02 mPa·s
- mass density ([2]; 353.15 K): 782.5 ± 0.8 kg/m3
- viscosity ([2]; 363.15 K): 1.72 ± 0.02 mPa·s
- mass density ([2]; 363.15 K): 775.9 ± 0.8 kg/m3
- viscosity ([2]; 373.15 K): 1.48 ± 0.01 mPa·s
- mass density ([2]; 373.15 K): 769.2 ± 0.8 kg/m3

Compound: CCCCCCCCCCCCCCCC [hexadecane] + CCCC1CCCCC1
- viscosity ([1]; 293.15 K): 3.47 ± 0.02 mPa·s
- speed of sound ([1]; 293.15 K): 1357.4 ± 0.6 m/s
- mass density ([1]; 293.15 K): 773.37 ± 0.81 kg/m3
- viscosity ([1]; 303.15 K): 2.76 ± 0.02 mPa·s
- speed of sound ([1]; 303.15 K): 1319.6 ± 0.6 m/s
- mass density ([1]; 303.15 K): 766.43 ± 0.81 kg/m3
- viscosity ([1]; 313.15 K): 2.24 ± 0.02 mPa·s
- speed of sound ([1]; 313.15 K): 1282.9 ± 0.6 m/s
- mass density ([1]; 313.15 K): 759.51 ± 0.81 kg/m3
- viscosity ([1]; 323.15 K): 1.86 ± 0.01 mPa·s
- speed of sound ([1]; 323.15 K): 1247 ± 0.6 m/s
- mass density ([1]; 323.15 K): 752.61 ± 0.81 kg/m3
- viscosity ([1]; 333.15 K): 1.56 ± 0.01 mPa·s
- speed of sound ([1]; 333.15 K): 1212.1 ± 0.6 m/s
- mass density ([1]; 333.15 K): 745.69 ± 0.81 kg/m3
- viscosity ([1]; 343.15 K): 1.35 ± 0.01 mPa·s
- mass density ([1]; 343.15 K): 738.78 ± 0.81 kg/m3
- viscosity ([1]; 353.15 K): 1.15 ± 0.01 mPa·s
- mass density ([1]; 353.15 K): 731.9 ± 0.8 kg/m3
- viscosity ([1]; 363.15 K): 1.02 ± 0.01 mPa·s
- mass density ([1]; 363.15 K): 724.9 ± 0.8 kg/m3

Compound: CCCCCCCCCCCCCCCC [hexadecane] + CCCCCCC1CCCCC1
- viscosity ([1]; 293.15 K): 3.47 ± 0.02 mPa·s
- mass density ([1]; 293.15 K): 773.37 ± 0.81 kg/m3
- viscosity ([1]; 303.15 K): 2.76 ± 0.02 mPa·s
- mass density ([1]; 303.15 K): 766.43 ± 0.81 kg/m3
- viscosity ([1]; 313.15 K): 2.24 ± 0.02 mPa·s
- mass density ([1]; 313.15 K): 759.51 ± 0.81 kg/m3
- viscosity ([1]; 323.15 K): 1.86 ± 0.01 mPa·s
- mass density ([1]; 323.15 K): 752.61 ± 0.81 kg/m3
- viscosity ([1]; 333.15 K): 1.56 ± 0.01 mPa·s
- mass density ([1]; 333.15 K): 745.69 ± 0.81 kg/m3
- viscosity ([1]; 343.15 K): 1.35 ± 0.01 mPa·s
- mass density ([1]; 343.15 K): 738.8 ± 0.8 kg/m3
- viscosity ([1]; 353.15 K): 1.15 ± 0.01 mPa·s
- mass density ([1]; 353.15 K): 731.9 ± 0.8 kg/m3
- viscosity ([1]; 363.15 K): 1.02 ± 0.01 mPa·s
- mass density ([1]; 363.15 K): 724.9 ± 0.8 kg/m3
